Measurements from PubChem BioAssay (NCI).
Where “and” joins values, the source holds several entries; their conditions need not be identical. Equal entries are not always repeated.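 Test compounds were applied to cells in 96-well plates for 48 hours at 5 doses. Here, GI50 denotes the concentration required for 50% inhibition of growth. TGI: total growth inhibition.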

Key:
Test in all cases: inhibition of tumour cell growth, NCI panel, 48 h
TK-10 renal = tested on: TK-10 renal
SK-OV-3 ovarian = tested on: SK-OV-3 ovarian
SW-620 colon = tested on: SW-620 colon
OVCAR-5 ovarian = tested on: OVCAR-5 ovarian
MCF7 breast = tested on: MCF7 breast
UACC-62 melanoma = tested on: UACC-62 melanoma
MDA-MB-231 breast = tested on: MDA-MB-231 breast
A498 renal = tested on: A498 renal
SF-295 CNS = tested on: SF-295 CNS
SN12C renal = tested on: SN12C renal

| SMILES | GI50 (TK-10 renal) | TGI (TK-10 renal) | GI50 (SK-OV-3 ovarian) | TGI (SK-OV-3 ovarian) | GI50 (SW-620 colon) | TGI (SW-620 colon) | GI50 (OVCAR-5 ovarian) | TGI (OVCAR-5 ovarian) | GI50 (MCF7 breast) | TGI (MCF7 breast) | GI50 (UACC-62 melanoma) | TGI (UACC-62 melanoma) | GI50 (MDA-MB-231 breast) | TGI (MDA-MB-231 breast) | GI50 (A498 renal) | TGI (A498 renal) | GI50 (SF-295 CNS) | TGI (SF-295 CNS) | GI50 (SN12C renal) | TGI (SN12C renal) |
| --- | --- | --- | --- | --- | --- | --- | --- | --- | --- | --- | --- | --- | --- | --- | --- | --- | --- | --- | --- | --- |
| Cc1ncsc1-c1ccc(CNC(=O)[C@@H]2C[C@@H](O)CN2C(=O)[C@@H](NC(=O)C2(C#N)CC2)C(C)(C)C)cc1 | > 100 µM | > 100 µM | > 100 µM | > 100 µM | > 100 µM | > 100 µM | > 100 µM | > 100 µM | > 100 µM | > 100 µM | 62.6 µM | > 100 µM | > 100 µM | > 100 µM | 24 µM | > 100 µM | > 100 µM | > 100 µM | > 100 µM | > 100 µM |
| O=C(NCc1ccco1)c1ccc(NC2=C(Cl)C(=O)N(Cc3ccccc3)C2=O)cc1 | 30.7 µM | 76.7 µM | 53.2 µM | > 100 µM | 51.7 µM | > 100 µM | 19.7 µM | 44.9 µM | 3.91 µM | 23.8 µM | 16.7 µM | 36.7 µM | 24 µM | 62.1 µM | 29.6 µM | 62.5 µM | 20.8 µM | 55.1 µM | 17.4 µM | 40.6 µM |
| C/C(=C(\c1ccc(OCCN2CCCCCC2)cc1)c1ccc(OC(=O)Cc2ccccc2)cc1)c1ccc(Cl)cc1 | 4.43 µM | 16.6 µM | 4.87 µM | 15.6 µM | 2.56 µM | 5.25 µM | 2.77 µM | 6.45 µM | 0.382 µM | 3.83 µM | 2.73 µM | 5.2 µM | 3.04 µM | 5.69 µM | 6.35 µM | 16.7 µM | 2.56 µM | 4.97 µM | 2.56 µM | 5.07 µM |
| COc1cnc2c(c1)C(=O)c1c-2n(CCCNC(C)C)c(=O)c2cc(F)ccc12 | 0.178 µM | 0.623 µM | 0.22 µM | 0.707 µM | 0.122 µM | 1.33 µM | 0.277 µM | 0.856 µM | 0.0318 µM | 2.08 µM | 0.271 µM | 1.27 µM | 0.402 µM | 1.57 µM | 0.199 µM | 0.811 µM | 0.0943 µM | 0.549 µM | 0.164 µM | 0.831 µM |
| N#CS.N=C=S.N=C=S.[Cu+2].[NH2-].[NH2-].[NH2-].[NH2-].c1ccc2ncccc2c1 | 90 µM | > 100 µM | 24.4 µM | 62.7 µM | > 100 µM | > 100 µM | 21.6 µM | 41 µM | 18.2 µM | 35.9 µM | 19.4 µM | 37 µM | 38.7 µM | 84.2 µM | 28.4 µM | 51 µM | 17.7 µM | 37 µM | > 100 µM | > 100 µM |
| CCS(=O)(=O)Nc1cccc(Nc2c3cccc(C)c3nc3c(C)cccc23)c1OC | 2.24 µM | 11.5 µM | 1.61 µM | 29.7 µM | 0.979 µM | > 100 µM | 3.86 µM | 41.5 µM | 0.168 µM | 49.5 µM | 0.635 µM | > 100 µM | 5.2 µM | 41.4 µM | 0.392 µM | 6.01 µM | 0.381 µM | 22.1 µM | 0.374 µM | 9.84 µM |
| S=C(N/N=C(/c1ccccc1)c1ccccn1)N1CCCCCC1 |  | 1.52 µM and 1.86 µM | 0.00173 µM | 2.5 µM and 1.31 µM | < 0.001 µM | 1.43 µM and 1.68 µM | < 0.001 µM | 2.11 µM | < 0.001 µM | 0.194 µM and 1.56 µM | 0.39 µM | 3.73 µM and 0.78 µM | < 0.001 µM | 1.87 µM and 1.83 µM | 0.00973 µM | 0.775 µM and 1.84 µM | 0.564 µM | 2.08 µM and 1.51 µM |  | 1.91 µM |
| CCCCCCCCCCCCCCCCOP(=O)(O)OP(=O)(O)OCC1OC(n2ccc(N)nc2=O)C(O)C1O (centres undefined) |  | > 100 µM | > 100 µM and 48.7 µM | > 100 µM |  | > 100 µM |  | > 100 µM | > 100 µM and 19.3 µM | > 100 µM | > 100 µM and 21.3 µM | > 100 µM |  | > 100 µM | > 100 µM | > 100 µM | > 100 µM and 46 µM | > 100 µM | > 100 µM and 19.4 µM | > 100 µM |
| CNC(=O)Oc1cc(C)c(/C=C/c2cncc(C(=O)NC)c2)c(C)c1 | > 25 µM | > 25 µM | > 25 µM | > 25 µM | > 25 µM | > 25 µM | > 25 µM | > 25 µM | > 25 µM | > 25 µM | 13.2 µM | > 25 µM | > 25 µM | > 25 µM | > 25 µM | > 25 µM | > 25 µM | > 25 µM | > 25 µM | > 25 µM |
| CN(C)CCCNC(=O)c1cncnc1Nc1ccc(OCc2cccc(F)c2)c(Cl)c1 | 1.84 µM | 3.48 µM | 1.72 µM | 3.23 µM | 1.85 µM | 3.32 µM | 1.67 µM | 3.07 µM | 1.56 µM | 3.06 µM | 1.82 µM | 3.22 µM | 1.69 µM | 3.14 µM | 1.56 µM | 2.93 µM | 1.7 µM | 3.1 µM | 1.67 µM | 3.14 µM |
| CCN(CC)CCCC(C)N=c1cc(Nc2cc(=NC(C)CCCN(CC)CC)c3cc(OC)ccc3o2)oc2ccc(OC)cc12 (centres undefined) | 1.3 µM | 3.22 µM | 1.31 µM | 4.13 µM | 0.672 µM | 3.04 µM | 0.89 µM | 2.38 µM | 1.08 µM | 3.68 µM | 1.04 µM | 2.39 µM | 0.666 µM | 1.88 µM | 1.15 µM | 7.83 µM | 1.1 µM | 3.14 µM | 1.4 µM | 11.8 µM |
| CC1(C)CCC(C)(C)c2c1ccc(O)c2Cc1c(O)ccc2c1C(C)(C)CCC2(C)C |  | 3.87 µM |  | 4.84 µM |  | 5.05 µM |  | 4.56 µM |  | 3.83 µM |  | 4.33 µM |  | 3.22 µM |  | 3.43 µM |  | 4.99 µM |  | 3.31 µM |
| CC(=O)Oc1cc2c(OC(C)=O)c(-c3c(C)cc4c(C(C)C)c(OC(C)=O)c(OC(C)=O)cc4c3OC(C)=O)c(C)cc2c(C(C)C)c1OC(C)=O | 7.37 µM and 5.6 µM and 16.2 µM | 21.9 µM and 17.4 µM and > 42.8 µM | 10.4 µM and 25.3 µM | > 39.3 µM and 34.1 µM and 55.8 µM | 19.6 µM and 4.74 µM and 9.38 µM | 43.7 µM and 9.61 µM and 22.5 µM | 5.86 µM and 5.87 µM and 9.81 µM | 13.6 µM and 12.9 µM and 25 µM | 6.42 µM and 7.03 µM and 10.3 µM | 19.5 µM and 21.5 µM and 27.1 µM | 1.03 µM and 4.38 µM and 5.54 µM | 2.2 µM and 8.65 µM and 11.7 µM | 0.67 µM and 1.58 µM and 3.63 µM | 2.08 µM and 7.6 µM and 12.4 µM | 4.91 µM and 4.51 µM and 11.5 µM | 10 µM and 11.7 µM and 37.3 µM | 8.78 µM and 5.99 µM and 10.7 µM | 26.7 µM and 12.5 µM and 30.6 µM | 1.21 µM and 1.22 µM and 6.11 µM | 2.44 µM and 8.04 µM and 12.8 µM |
| COc1cc(-c2ncn(/C=C\C(=O)OC(C)C)n2)cc(C(F)(F)F)c1 | 0.271 µM and 0.123 µM | 6.91 µM and 5.42 µM | 0.357 µM and 0.179 µM | 16.9 µM and 15.1 µM | 0.0368 µM and 0.0441 µM | 6.58 µM and 5.38 µM | 0.196 µM and 0.154 µM | 17.3 µM and 14.8 µM | 0.0364 µM and 0.0477 µM | 1.67 µM and 10.4 µM | 0.112 µM and 0.114 µM | 2 µM and 3.42 µM | 0.065 µM and 0.0398 µM | 4.81 µM and 7.12 µM | 0.0364 µM and < 0.0144 µM | 0.673 µM and 0.0916 µM | 0.0891 µM and 0.196 µM | 14.1 µM and 11.8 µM | 0.28 µM and 0.314 µM | 11.7 µM and 11 µM |
